Test results as given in PubChem BioAssay AID1963961 (Molecular Pharmacology Branch, DTP, NCI, 2024).

System: K98450-129-R-PDC multicell spheroids, viability
Assay: Anticancer human tumor K98450-129-R-PDC patient-derived colon adenocarcinoma cell line growth inhibition [PI3K]
Conditions: for viability, T/C: stronger effect = lower value
Summary of the method: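 Three cell types, namely tumor cells, endothelial cells and mesenchymal stem cells, formed each spheroid. Combinations with four PI3K inhibitors were screened at clinically achievable concentrations decreasing by half-log, and spheroid viability was recorded.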

[1] = curve of first compound, second compound 0.0316 µM
[2] = curve of first compound, second compound 0.1 µM
[3] = curve of first compound, second compound 0.316 µM
[4] = curve of first compound, second compound 1 µM
[5] = second compound 0.0316 µM, first compound 0.0316 µM
[6] = second compound 0.0316 µM, first compound 0.1 µM
[7] = second compound 0.0316 µM, first compound 0.316 µM
[8] = second compound 0.0316 µM, first compound 1 µM
[9] = second compound 0.0316 µM, first compound 3.16 µM
[10] = second compound 0.0316 µM, first compound 10 µM
[11] = second compound 0.1 µM, first compound 0.0316 µM
[12] = second compound 0.1 µM, first compound 0.1 µM
[13] = second compound 0.1 µM, first compound 0.316 µM
[14] = second compound 0.1 µM, first compound 1 µM
[15] = second compound 0.1 µM, first compound 3.16 µM
[16] = second compound 0.1 µM, first compound 10 µM
[17] = second compound 0.316 µM, first compound 0.0316 µM
[18] = second compound 0.316 µM, first compound 0.1 µM
[19] = second compound 0.316 µM, first compound 0.316 µM
[20] = second compound 0.316 µM, first compound 1 µM
[21] = second compound 0.316 µM, first compound 3.16 µM
[22] = second compound 0.316 µM, first compound 10 µM
[23] = second compound 1 µM, first compound 0.0316 µM
[24] = second compound 1 µM, first compound 0.1 µM
[25] = second compound 1 µM, first compound 0.316 µM
[26] = second compound 1 µM, first compound 1 µM
[27] = second compound 1 µM, first compound 3.16 µM
[28] = second compound 1 µM, first compound 10 µM
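Further: spheroids exposed to agents for seven days before read-out.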

Cn1ncnc1[C@H]1c2n[nH]c(=O)c3cc(F)cc(c23)N[C@@H]1c1ccc(F)cc1
viability, T/C (compound 0.000316 µM): 104% [middle of 4 runs] | viability, T/C (compound 0.001 µM): 95% [middle of 4 runs] | viability, T/C (compound 0.00316 µM): 103% [middle of 4 runs] | viability, T/C (compound 0.0316 µM): 104% [middle of 4 runs] | viability, T/C (compound 0.1 µM): 95.2% [middle of 4 runs] | IC50 (curve of compound): > 0.1 µM

CC(C)NCC(C(=O)N1CCN(c2ncnc3c2C(C)CC3O)CC1)c1ccc(Cl)cc1 (stereo not given) + Cc1nc(NC(=O)N2CCCC2C(N)=O)sc1-c1ccnc(C(C)(C)C(F)(F)F)c1
IC50 [1]: > 10 µM | IC50 [2]: > 10 µM | IC50 [3]: > 10 µM | IC50 [4]: > 10 µM | IC50 (curve of first compound, second compound 3.16 µM): > 10 µM | IC50 (curve of first compound, second compound 10 µM): > 10 µM | viability, T/C [5]: 104% | viability, T/C [6]: 99.1% | viability, T/C [7]: 107% | viability, T/C [8]: 104% | viability, T/C [9]: 100% | viability, T/C [10]: 102% | viability, T/C [11]: 108% | viability, T/C [12]: 98.8% | viability, T/C [13]: 103% | viability, T/C [14]: 100% | viability, T/C [15]: 103% | viability, T/C [16]: 99.9% | viability, T/C [17]: 104% | viability, T/C [18]: 105% | viability, T/C [19]: 104% | viability, T/C [20]: 95.2% | viability, T/C [21]: 101% | viability, T/C [22]: 97% | viability, T/C [23]: 84.6% | viability, T/C [24]: 93.1% | viability, T/C [25]: 96.5% | viability, T/C [26]: 89.6% | viability, T/C [27]: 102% | viability, T/C [28]: 94.5% | viability, T/C (second compound 3.16 µM, first compound 0.0316 µM): 86.6% | viability, T/C (second compound 3.16 µM, first compound 0.1 µM): 84.1% | viability, T/C (second compound 3.16 µM, first compound 0.316 µM): 90.2% | viability, T/C (second compound 3.16 µM, first compound 1 µM): 80.3% | viability, T/C (second compound 3.16 µM, first compound 3.16 µM): 95.6% | viability, T/C (second compound 3.16 µM, first compound 10 µM): 91.1% | viability, T/C (second compound 10 µM, first compound 0.0316 µM): 70.7% | viability, T/C (second compound 10 µM, first compound 0.1 µM): 78% | viability, T/C (second compound 10 µM, first compound 0.316 µM): 77% | viability, T/C (second compound 10 µM, first compound 1 µM): 73.1% | viability, T/C (second compound 10 µM, first compound 3.16 µM): 78.1% | viability, T/C (second compound 10 µM, first compound 10 µM): 75%

C[C@@H](NC(=O)c1ncnc(N)c1Cl)c1ncc(C(=O)Nc2cc(C(F)(F)F)c(Cl)cn2)s1 + COc1c(OCCCN2CCOCC2)ccc2c3n(c(=NC(=O)c4cnc(N)nc4)nc12)CCN3
IC50 (curve of first compound, second compound 0.00316 µM): > 10 µM | IC50 (curve of first compound, second compound 0.01 µM): > 10 µM | IC50 [1]: > 10 µM | IC50 [2]: > 10 µM | IC50 [3]: > 10 µM | IC50 [4]: 4.39 µM | viability, T/C (second compound 0.00316 µM, first compound 0.0316 µM): 119% | viability, T/C (second compound 0.00316 µM, first compound 0.1 µM): 119% | viability, T/C (second compound 0.00316 µM, first compound 0.316 µM): 108% | viability, T/C (second compound 0.00316 µM, first compound 1 µM): 117% | viability, T/C (second compound 0.00316 µM, first compound 3.16 µM): 133% | viability, T/C (second compound 0.00316 µM, first compound 10 µM): 95% | viability, T/C (second compound 0.01 µM, first compound 0.0316 µM): 108% | viability, T/C (second compound 0.01 µM, first compound 0.1 µM): 93.7% | viability, T/C (second compound 0.01 µM, first compound 0.316 µM): 115% | viability, T/C (second compound 0.01 µM, first compound 1 µM): 108% | viability, T/C (second compound 0.01 µM, first compound 3.16 µM): 105% | viability, T/C (second compound 0.01 µM, first compound 10 µM): 95.9% | viability, T/C [5]: 83.5% | viability, T/C [6]: 96% | viability, T/C [7]: 97.4% | viability, T/C [8]: 93% | viability, T/C [9]: 109% | viability, T/C [10]: 78.7% | viability, T/C [11]: 76% | viability, T/C [12]: 87% | viability, T/C [13]: 98.4% | viability, T/C [14]: 90.3% | viability, T/C [15]: 101% | viability, T/C [16]: 70.9% | viability, T/C [17]: 54.8% | viability, T/C [18]: 71.6% | viability, T/C [19]: 65.2% | viability, T/C [20]: 69.2% | viability, T/C [21]: 68.2% | viability, T/C [22]: 51.1% | viability, T/C [23]: 58.3% | viability, T/C [24]: 55% | viability, T/C [25]: 51.1% | viability, T/C [26]: 62.1% | viability, T/C [27]: 59.6% | viability, T/C [28]: 37.1%
